Where two headings read alike, the source gives them in different places.
Experiments:
PI3 K Alpha = PI3 K Alpha (Homo sapiens, UniProt P42336); experiment: PI3 kinase phosphorylation assays (homogenous solution phase, one step solid phase, ATP depletion/KinaseGlo); format: biochemical
A2780 cells = experiment: Viability assay in A2780 (Cell Titer Glo); format: cell-based, human; settings: Homo sapiens
In short: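 EC50 values come from Cell Titer Glo luminescence after 72 hrs of compound exposure at 37° C, run in duplicate. A2780 cells were plated at 1,000 per well in DMEM with 10% FBS and dosed with 3-fold serial dilutions.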

[1] = test system: pSer473-Akt in A2780 cells; experiment: pSer473 Akt assay to monitor PI3K pathway in A2780 cells (MSD); format: cell-based; settings: Homo sapiens
Experimental: In this method, an assay for measuring the PI3K-mediated pSer^473-Akt status after treatment with representative inhibitor compounds of the preferred embodiments is described.
A2780 cells were cultured in DMEM supplemented with 10% FBS, L-glutamine, sodium pyruvate, and antibiotics. Cells were plated in the same medium at a density of 15,000 cells per well into 96 well tissue culture plates, with outside wells vacant, and allowed to adhere overnight.
Test compounds supplied in DMSO were diluted further into DMSO at 500 times the desired final concentrations before dilution into culture media to 2 times the final concentrations. Equal volumes of 2× compounds in media were added to the cells in 96 well plates and incubated at 37° C. for one hour. The media and compounds were then removed, the plates chilled and cells lysed in a lysis buffer (150 mM NaCl, 20 mM Tris pH 7.5, 1 mM EDTA, 1 mM EGTA, 1% Triton X-100) supplemented with phosphatase and protease inhibitors. After thorough mixing, lysates were transferred to both pSer473Akt and total Akt assay plates from Meso Scale Discovery (MSD), and incubated overnight with shaking at 4° C. The plates were washed with 1×MSD wash buffer and the captured analytes detected with secondary antibodies. After incubation with the secondary antibody at room temperature for 1-2 hours, the plates were washed again and 1.5× concentration of Read Buffer T (MSD) was added to the wells.
The assays were read on a SECTOR Imager 6000 instrument (Meso Scale Discovery). Ratios of the signal from pSer473Akt and total Akt assays were used to correct for any variability and the percent inhibition of pSer473Akt from the total signal seen in cells treated with compound versus DMSO alone was calculated and used to determine EC50 values for each compound as shown in Tables 1 and 2 in the column labeled “A2780 pAKT473 EC50”.

[2] = ATP depletion assay, read-out: PI3 K Alpha IC50
[3] = A2780 cells, 72 hrs, read-out: A2780 Cell prolif. EC50
[4] = 1 h, A2780 cells, one hour incubation, read-out: A2780 pAKT473 EC50
[5] = A2780 cells, read-out: A2780 Cell prolif. EC50
[6] = A2780 cells, read-out: A2780 pAKT 473 EC50

Chain of PI3 K Alpha (P42336 whole entry): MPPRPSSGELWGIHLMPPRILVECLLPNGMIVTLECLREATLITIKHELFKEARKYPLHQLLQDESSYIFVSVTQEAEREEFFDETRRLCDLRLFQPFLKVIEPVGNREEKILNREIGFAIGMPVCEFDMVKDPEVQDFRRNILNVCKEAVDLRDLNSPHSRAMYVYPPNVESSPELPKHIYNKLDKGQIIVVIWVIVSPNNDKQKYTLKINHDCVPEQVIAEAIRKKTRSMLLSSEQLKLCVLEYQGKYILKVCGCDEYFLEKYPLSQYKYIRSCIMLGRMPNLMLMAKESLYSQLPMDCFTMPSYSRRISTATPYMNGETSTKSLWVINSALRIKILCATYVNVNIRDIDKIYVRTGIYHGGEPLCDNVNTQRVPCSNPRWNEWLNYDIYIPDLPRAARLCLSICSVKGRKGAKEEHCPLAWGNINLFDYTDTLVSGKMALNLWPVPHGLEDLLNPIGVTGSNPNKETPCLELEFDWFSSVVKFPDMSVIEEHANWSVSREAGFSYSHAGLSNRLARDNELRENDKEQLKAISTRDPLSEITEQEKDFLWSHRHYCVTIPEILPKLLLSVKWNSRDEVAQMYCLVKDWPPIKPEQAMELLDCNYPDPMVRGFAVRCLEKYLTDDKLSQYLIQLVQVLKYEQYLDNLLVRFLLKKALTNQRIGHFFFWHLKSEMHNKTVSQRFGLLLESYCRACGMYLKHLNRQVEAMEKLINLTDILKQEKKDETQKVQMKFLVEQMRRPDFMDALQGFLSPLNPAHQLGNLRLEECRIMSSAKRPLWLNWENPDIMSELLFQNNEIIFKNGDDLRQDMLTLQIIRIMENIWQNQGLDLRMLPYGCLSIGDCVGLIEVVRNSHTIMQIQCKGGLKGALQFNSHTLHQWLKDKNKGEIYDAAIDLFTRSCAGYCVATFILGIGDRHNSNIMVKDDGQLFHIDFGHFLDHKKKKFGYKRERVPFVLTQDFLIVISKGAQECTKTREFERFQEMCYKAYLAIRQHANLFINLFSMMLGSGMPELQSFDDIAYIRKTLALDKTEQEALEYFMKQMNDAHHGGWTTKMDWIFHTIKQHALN
Chain of PI3 K Alpha (P27986 whole entry partner): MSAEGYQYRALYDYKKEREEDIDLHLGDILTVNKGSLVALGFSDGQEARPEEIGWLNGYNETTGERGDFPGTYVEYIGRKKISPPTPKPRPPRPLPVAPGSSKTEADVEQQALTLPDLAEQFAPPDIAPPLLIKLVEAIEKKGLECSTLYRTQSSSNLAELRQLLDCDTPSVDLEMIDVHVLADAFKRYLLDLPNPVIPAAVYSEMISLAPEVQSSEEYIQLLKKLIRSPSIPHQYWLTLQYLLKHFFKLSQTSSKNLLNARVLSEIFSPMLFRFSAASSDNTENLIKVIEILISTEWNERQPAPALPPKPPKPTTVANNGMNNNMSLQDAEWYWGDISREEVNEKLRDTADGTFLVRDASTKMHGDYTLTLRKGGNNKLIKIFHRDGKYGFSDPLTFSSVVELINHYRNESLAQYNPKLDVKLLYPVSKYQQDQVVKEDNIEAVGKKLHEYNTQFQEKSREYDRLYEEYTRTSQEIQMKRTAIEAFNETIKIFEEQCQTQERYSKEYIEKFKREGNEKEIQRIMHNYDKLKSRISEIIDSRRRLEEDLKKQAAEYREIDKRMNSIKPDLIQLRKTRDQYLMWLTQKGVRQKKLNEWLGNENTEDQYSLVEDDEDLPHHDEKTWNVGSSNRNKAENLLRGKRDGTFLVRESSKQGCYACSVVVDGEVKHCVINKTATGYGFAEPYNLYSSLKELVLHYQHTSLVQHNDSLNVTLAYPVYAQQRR

SMILES	IC50 (PI3 K Alpha; [2]) [nM]	EC50 (A2780 cells; [3]) [nM]	EC50 [1, 4] [nM]	IC50 (PI3 K Alpha; read-out: PI3K Alpha IC50) [nM]	EC50 (A2780 cells; [5]) [nM]	EC50 [1, 6] [nM]	EC50 (A2780 cells; A2780, read-out: A2780 Cell prolif. EC50) [nM]	EC50 ([1]; A2780, read-out: A2780 pAKT 473 EC50) [nM]
Nc1ncc(-c2ccc3nc(NC(=O)CCCN4CCOCC4)sc3c2)cn1 [Example 2-11, N-[6-(2-Amino-pyrimidin-5-yl)-benzothiazol-2-yl]-4-morpholin-4-yl-butyramide]	< 1000	< 10000	< 1000	–	–	–	–	–
Nc1ccc(-c2ccc3nc(NC(=O)CN4CCOCC4)sc3c2)cn1 [Example 2-16, N-[6-(6-Amino-pyridin-3-yl)-benzothiazol-2-yl]-2-morpholin-4-yl-acetamide]	< 1000	< 25000	< 1000	–	–	–	–	–
CC(=O)Nc1nc2ccc(-c3cnc(N)cc3C)cc2s1 [Example 2-18, N-[6-(6-Amino-4-methyl-pyridin-3-yl)-benzothiazol-2-yl]-acetamide]	< 1000	< 25000	< 10000	–	–	–	–	–
CNC(=O)Nc1nc2ccc(-c3ccc(N)nc3)cc2s1 [Example 2-23, 1-[6-(6-Amino-pyridin-3-yl)-benzothiazol-2-yl]-3-methyl-urea]	< 1000	< 10000	< 1000	–	–	–	–	–
Nc1ccc(-c2ccc3nc(NC(=O)OCCN4CCOCC4)sc3c2)cn1 [Example 2-24, [6-(6-Amino-pyridin-3-yl)-benzothiazol-2-yl]-carbamic acid 2-morpholin-4-yl-ethyl ester]	< 1000	< 25000	< 10000	–	–	–	–	–
CC(=O)Nc1nc2ccc(-c3cnc(N)c(CN(C)C)c3)cc2s1 [Example 2-25, N-[6-(6-Amino-5-dimethylamino-methyl-pyridin-3-yl)-benzothiazol-2-yl]-acetamide]	< 1000	< 10000	< 1000	–	–	–	–	–
CC(=O)Nc1nc2ccc(-c3cnc(N)c(C(=O)N4CCOCC4)c3)cc2s1 [Example 2-26, N-{6-[6-Amino-5-(morpholine-4-carbonyl)-pyridin-3-yl]-benzothiazol-2-yl}-acetamide]	< 1000	< 10000	< 1000	–	–	–	–	–
CC(=O)Nc1nc2ccc(-c3cnc(N)c(C(F)(F)F)c3)c(C)c2s1 [Example 2-27, N-[6-(6-Amino-5-trifluoromethyl-pyridin-3-yl)-7-methyl-benzothiazol-2-yl]-acetamide]	< 1000	< 10000	< 1000	–	–	–	–	–
CC(=O)Nc1nc2ccc(-c3cnc(N)c(C(F)(F)F)c3)c(F)c2s1 [Example 2-30, N-[6-(6-Amino-5-trifluoromethyl-pyridin-3-yl)-7-fluoro-benzothiazol-2-yl]-acetamide]	< 1000	< 10000	< 1000	–	–	–	–	–
CC(=O)Nc1nc2c(F)cc(-c3cnc(N)c(C(F)(F)F)c3)cc2s1 [Example 2-31, N-[6-(6-Amino-5-trifluoromethyl-pyridin-3-yl)-4-fluoro-benzothiazol-2-yl]-acetamide]	< 1000	< 25000	< 1000	–	–	–	–	–
COCCOc1nc(-c2ccc3nc(NC(C)=O)sc3c2)cnc1N [Example 2-32, N-(6-(5-amino-6-(2-methoxyethoxy)pyrazin-2-yl)benzo[d]thiazol-2-yl)acetamide]	< 1000	< 10000	< 1000	–	–	–	–	–
NC(=O)[C@@H]1CCCN1C(=O)Nc1nc2ccc(-c3cnc(N)c(C(F)(F)F)c3)cc2s1 [Example 2-33, (S)-N1-(6-(6-amino-5-(trifluoromethyl)pyridin-3-yl)benzo[d]thiazol-2-yl)pyrrolidine-1,2-dicarboxamide]	< 1000	< 10000	< 1000	–	–	–	–	–
CC(=O)Nc1nc2ccc(-c3cnc(N)c(OCC(F)(F)F)n3)cc2s1 [Example 2-37, N-(6-(5-amino-6-(2,2,2-trifluoroethoxy)pyrazin-2-yl)benzo[d]thiazol-2-yl)acetamide]	< 1000	< 1000	< 1000	–	–	–	–	–
CC(=O)Nc1cn2cc(-c3ccc(N)nc3)ccc2n1 [Example 3, N-[6-(6-Amino-pyridin-3-yl)-imidazo[1,2-a]pyridin-2-yl]-acetamide]	–	–	–	< 1000	< 10000	< 1000	–	–
CC(=O)Nc1cn2cc(-c3cnc(N)nc3)ccc2n1 [Example 4, N-[6-(2-Amino-pyrimidin-5-yl)-imidazo[1,2-a]pyridin-2-yl]-acetamide]	–	–	–	< 1000	< 25000	< 10000	–	–
CC(=O)Nc1nc2ccc(-c3cnc(N)c(C(F)(F)F)c3)cn2c1Cl [Example 7, N-[6-(6-Amino-5-trifluoromethyl-pyridin-3-yl)-3-chloro-imidazo[1,2-a]pyridin-2-yl]-acetamide]	–	–	–	< 1000	< 10000	< 10000	–	–
COc1cc(-c2ccc3nc(NC(C)=O)c(Br)n3c2)cnc1N [Example 8, N-[6-(6-Amino-5-methoxy-pyridin-3-yl)-3-bromo-imidazo[1,2-a]pyridin-2-yl]-acetamide]	–	–	–	< 1000	< 10000	< 1000	–	–
CC(=O)Nc1nc2ccc(-c3cnc(N)c(C(F)(F)F)c3)cn2c1Br [Example 11, N-[6-(6-Amino-5-trifluoromethyl-pyridin-3-yl)-3-bromo-imidazo[1,2-a]pyridin-2-yl]-acetamide]	–	–	–	< 1000	–	–	< 25000	< 10000
CC(=O)Nc1nc2ccc(-c3cnc(N)c(C(F)(F)F)c3)cn2c1-c1ccccc1 [Example 12, N-[6-(6-Amino-5-trifluoromethyl-pyridin-3-yl)-3-phenyl-imidazo[1,2-a]pyridin-2-yl]-acetamide]	–	–	–	< 1000	< 25000	< 10000	–	–
CC(=O)Nc1nc2ccc(-c3cnc(N)c(C(F)(F)F)c3)cn2c1-c1ccc(C(N)=O)cc1 [Example 13, 4-[2-Acetylamino-6-(6-amino-5-trifluoromethyl-pyridin-3-yl)-imidazo[1,2-a]pyridin-3-yl]-benzamide]	–	–	–	< 1000	< 25000	< 25000	–	–
CNC(=O)c1ccc(-c2c(NC(C)=O)nc3ccc(-c4cnc(N)c(C(F)(F)F)c4)cn23)cc1 [Example 18, 4-[2-Acetylamino-6-(6-amino-5-trifluoromethyl-pyridin-3-yl)-imidazo[1,2-a]pyridin-3-yl]-N-methyl-benzamide]	–	–	–	< 1000	< 25000	< 10000	–	–
COC(=O)Nc1cn2cc(-c3cnc(N)c(C(F)(F)F)c3)ccc2n1 [Example 19, [6-(6-Amino-5-trifluoromethyl-pyridin-3-yl)-imidazo[1,2-a]pyridin-2-yl]-carbamic acid methyl ester]	–	–	–	< 1000	< 10000	< 1000	–	–
CC(=O)Nc1nc2ccc(-c3cnc(N)c(C(F)(F)F)c3)cn2c1C#Cc1ccccc1 [Example 23, N-[6-(6-Amino-5-trifluoromethyl-pyridin-3-yl)-3-phenylethynyl-imidazo[1,2-a]pyridin-2-yl]-acetamide]	–	–	–	< 1000	< 10000	< 1000	–	–
Nc1ncc(-c2ccc3nc(NC(=O)CCCN4CCCCC4)cn3c2)cc1C(F)(F)F [Example 25, N-[6-(6-Amino-5-trifluoromethyl-pyridin-3-yl)-imidazo[1,2-a]pyridin-2-yl]-4-piperidin-1-yl-butyramide]	–	–	–	< 1000	< 10000	< 1000	–	–
Nc1ncc(-c2ccc3nc(NC(=O)CCCN4CCOCC4)cn3c2)cc1C(F)(F)F [Example 26, N-[6-(6-Amino-5-trifluoromethyl-pyridin-3-yl)-imidazo[1,2-a]pyridin-2-yl]-4-morpholin-4-yl-butyramide]	–	–	–	< 1000	< 10000	< 1000	–	–

Reference: US20100075965A1, “PI3 KINASE INHIBITORS AND METHODS OF THEIR USE” (Novartis AG, priority 2006, published 2010)
